One assay concerns the target T1, Aurora A kinase (Homo sapiens, UniProt O14965).
T1 construct: purchased Upstate Biotech
T1 sequence (O14965 1-403): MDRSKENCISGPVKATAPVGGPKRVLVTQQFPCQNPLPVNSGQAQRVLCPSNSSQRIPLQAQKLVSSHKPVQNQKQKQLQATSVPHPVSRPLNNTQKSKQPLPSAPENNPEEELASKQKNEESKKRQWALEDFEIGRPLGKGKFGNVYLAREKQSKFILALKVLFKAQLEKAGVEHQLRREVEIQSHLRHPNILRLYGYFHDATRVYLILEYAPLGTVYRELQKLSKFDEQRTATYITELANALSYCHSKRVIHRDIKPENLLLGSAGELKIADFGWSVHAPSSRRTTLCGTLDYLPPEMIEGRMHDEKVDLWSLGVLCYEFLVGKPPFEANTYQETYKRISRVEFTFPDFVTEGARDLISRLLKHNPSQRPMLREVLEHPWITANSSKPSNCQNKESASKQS
In words: Aurora A kinase assay (IMAP fluorescence polarization). The note with it: 10 μM ATP; rounded to 1 significant figure; read-out: Aur-A IC50. The format is biochemical. An excerpt:
(§1) The cell lines HL60 (human promyelocytic leukemia) and HCT116 (human colon carcinoma) were obtained from the American Type Culture Collection, Manassas, Va., U.S.A., and HUVEC-2 (human umbilical vein endothelial cells) from BD Biosciences, Bedford, Mass., U.S.A. Aurora A kinase was obtained from Upstate Biotech, Billerica, Mass., U.S.A.; Aurora B kinase from BPS Bioscience, San Diego, Calif., U.S.A.; and VEGFR2 kinase from Cell Signaling Technology, Danvers, Mass., U.S.A. The IMAP FP Screening Express kit was obtained from Molecular Devices, Sunnyvale, Calif., U.S.A.; the CellTiter-Glo assay kit from Promega Corporation, Madison, Wis., U.S.A.; and the Cellular DNA Cytometric Analysis Reagent Kit and BrdU labeling and detection kit from Roche Diagnostics Corporation, Indianapolis, Ind., U.S.A. All products were used in accordance with manufacturer's directions. Kinase inhibition assays and the histone phosphorylation (p-H3) assay were conducted in duplicate, and the cytotoxicity and HUVEC proliferation assays were conducted in triplicate, in each case with solvent control.
Aurora A kinase assay: the test compounds were diluted in dimethylsulfoxide (DMSO, eight concentrations with serial 3-fold dilutions) and incubated (final DMSO concentration 2.5%) with Aurora A kinase at room temperature for 5 min in kinase reaction buffer with 1 mM dithiothreitol (IMAP FP Screening Express). The kinase reaction was initiated by adding 100 nM fluorescein labeled PKAtide and 10 μM adenosine triphosphate (ATP), and allowed to continue for 45 min at room temperature, after which it was stopped by adding binding reagent (1:400 dilution in binding buffer A). After 30 min of room temperature incubation with shaking, the fluorescence polarization was measured on a LJL plate reader. Aurora B kinase assay: performed as for the Aurora A kinase assay, but using Aurora B kinase instead of Aurora A kinase.
(Polarisation of emitted light reports the rotation of a fluorescent probe.)

For the next assay, the target named is T2, Aurora B kinase (Homo sapiens, UniProt Q96GD4).
T2 construct: purchased BPS Bioscience
T2 sequence (Q96GD4 whole entry): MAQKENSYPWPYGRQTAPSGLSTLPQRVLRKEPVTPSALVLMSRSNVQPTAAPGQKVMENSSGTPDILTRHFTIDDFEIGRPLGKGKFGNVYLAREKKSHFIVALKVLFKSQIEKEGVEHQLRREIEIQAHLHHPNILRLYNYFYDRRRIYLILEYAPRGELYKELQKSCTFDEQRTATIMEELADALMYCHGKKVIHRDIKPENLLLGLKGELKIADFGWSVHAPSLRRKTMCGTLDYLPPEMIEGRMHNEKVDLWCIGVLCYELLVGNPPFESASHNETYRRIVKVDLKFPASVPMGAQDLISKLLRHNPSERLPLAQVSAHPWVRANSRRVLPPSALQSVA
Description: Aurora B kinase assay (IMAP fluorescence polarization). The format is biochemical. As to conditions: 10 μM ATP; rounded to 1 significant figure; read-out: Aur-B IC50.
Excerpt: as §1
The kinase reaction was initiated by adding 100 nM fluorescein labeled PKAtide and 10 μM adenosine triphosphate (ATP), and allowed to continue for 45 min at room temperature, after which it was stopped by adding binding reagent (1:400 dilution in binding buffer A). After 30 min of room temperature incubation with shaking, the fluorescence polarization was measured on a LJL plate reader. Aurora B kinase assay: performed as for the Aurora A kinase assay, but using Aurora B kinase instead of Aurora A kinase.

Another assay concerns p-H3 in HCT116 cells. Description: Histone phosphorylation (p-H3) assay. It is filed as cell-based. As to conditions: Homo sapiens, HCT-116; HCT116 cells, 4 hr incubation; read-out: p-H3 IC50.
Excerpt: as §1
Log phase HCT116 cells were seeded at 2.5×10^4 cells/well in a 96-well plate and allowed to attach overnight. The test compounds were diluted in DMSO (8 concentrations with serial 3-fold dilutions) and added to the cells (0.5% DMSO final concentration), and the cells incubated for 4 hr. The cells were then washed three times with cold phosphate-buffered saline (PBS), and lysis buffer was added. After 30 min shaking at 4° C. and centrifugation, the supernatants were transferred to a nitrocellulose membrane by a “dot-blot” apparatus. After washing the wells, the membrane was processed for Western blot. Detection of p-H3 and β-actin was performed on the same membrane with primary rabbit anti-p-H3 and mouse anti-β-actin antibodies followed by secondary goat anti-rabbit IRDye800 and goat anti-mouse AlexaFluor 680 antibodies. The membranes were scanned on an Odyssey scanner.

The test system of assay [1] is HCT116 (human colon carcinoma) cells. In words: HCT116 cytotoxicity assay (CellTiter-Glo). The format is cell-based. As to conditions: HCT-116, 72 h, cytotoxicity, three days culture, read-out: HCT116 IC50.
Excerpt: as §1
Log-phase cells were trypsinized, collected by centrifugation, and resuspended in a small volume of fresh medium, and the density of viable cells was determined following Trypan Blue staining. Cells were diluted in fresh media (1×10^4 cells/mL for HL60 and 4×10^4 cells/mL for HCT116 cells), the test compounds (concentrations between 0.1 μM and 200 μM, dissolved in DMSO, 50 μL) added immediately after dilution to achieve a final DMSO concentration of 0.5%, then the suspensions added at 150 μL/well to 96-well plates, and incubated overnight to allow attachment in the case of adherent cells. The cells were cultured for three days (about three doubling times). The cells were then collected by centrifugation, and 100 μL of the culture supernatant was replaced by the CellTiter-Glo reagent. After incubation for 15 minutes at room temperature, the plate was read with a luminometer.
A general note: In ATP-based viability assays light output follows the ATP content of the culture.

For the next assay, the target named is T3, VEGFR2 kinase (Homo sapiens, UniProt P35968).
T3 construct: purchased Cell Signaling Technology
T3 sequence (P35968 20-1356): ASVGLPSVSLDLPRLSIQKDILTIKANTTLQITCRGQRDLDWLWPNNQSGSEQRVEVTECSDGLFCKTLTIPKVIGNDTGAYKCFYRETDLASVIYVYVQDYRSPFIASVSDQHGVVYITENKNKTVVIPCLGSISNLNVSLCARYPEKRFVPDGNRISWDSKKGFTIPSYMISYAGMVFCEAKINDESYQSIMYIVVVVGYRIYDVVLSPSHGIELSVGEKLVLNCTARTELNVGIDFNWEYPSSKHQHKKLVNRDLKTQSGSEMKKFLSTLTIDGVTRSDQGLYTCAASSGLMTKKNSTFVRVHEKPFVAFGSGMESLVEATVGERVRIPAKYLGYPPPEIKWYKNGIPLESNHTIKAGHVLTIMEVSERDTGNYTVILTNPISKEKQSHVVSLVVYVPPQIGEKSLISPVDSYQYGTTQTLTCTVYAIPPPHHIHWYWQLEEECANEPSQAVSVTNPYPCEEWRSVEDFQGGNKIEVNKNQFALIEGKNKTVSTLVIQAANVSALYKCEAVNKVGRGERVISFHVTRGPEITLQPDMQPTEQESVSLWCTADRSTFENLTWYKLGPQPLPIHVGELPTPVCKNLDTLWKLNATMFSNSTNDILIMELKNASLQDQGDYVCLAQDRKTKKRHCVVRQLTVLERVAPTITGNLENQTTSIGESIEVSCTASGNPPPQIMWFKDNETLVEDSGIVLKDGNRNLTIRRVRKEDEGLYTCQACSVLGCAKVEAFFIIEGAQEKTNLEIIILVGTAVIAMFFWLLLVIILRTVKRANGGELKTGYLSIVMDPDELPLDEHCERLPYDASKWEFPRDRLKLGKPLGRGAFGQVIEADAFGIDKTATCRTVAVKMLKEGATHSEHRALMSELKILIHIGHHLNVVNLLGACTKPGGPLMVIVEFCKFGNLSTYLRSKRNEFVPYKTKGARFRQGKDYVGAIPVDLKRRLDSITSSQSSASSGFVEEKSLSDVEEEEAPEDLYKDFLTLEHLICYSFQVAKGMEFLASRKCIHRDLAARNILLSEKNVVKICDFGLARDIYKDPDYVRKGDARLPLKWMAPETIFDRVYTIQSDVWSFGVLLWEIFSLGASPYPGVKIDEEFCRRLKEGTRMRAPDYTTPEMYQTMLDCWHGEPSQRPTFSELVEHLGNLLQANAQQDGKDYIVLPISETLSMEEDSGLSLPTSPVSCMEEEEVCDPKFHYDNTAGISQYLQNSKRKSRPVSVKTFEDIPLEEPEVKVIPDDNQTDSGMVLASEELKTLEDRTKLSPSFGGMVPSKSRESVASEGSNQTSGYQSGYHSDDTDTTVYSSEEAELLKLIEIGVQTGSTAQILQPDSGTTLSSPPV
Description: VEGFR2 kinase assay. The format is biochemical. The note with it: 6 μM ATP, 1 mM MnCl2; rounded to 1 significant figure.
Excerpt: as §1
This assay was performed as for the Aurora A kinase assay, using VEGFR2 kinase, CSKtide as the substrate with 6 μM ATP and 1 mM MnCl2, a kinase reaction time of 1 hr, and dilution of the binding reagent 1:1200 in binding buffer A/binding buffer B (1:1).

pIC50: −log10 of the molar value.

For orientation: pIC50 means the negative decadic logarithm of the IC50, by convention in mol/L. On to `Cc1ccnc(C(C(N)=O)=C2Nc3ccccc3N2)n1` [Compound 19A], for which the pIC50 on Aurora A kinase is 6.40; on Aurora B kinase, 7.52; in the assay with p-H3 in HCT116 cells, below 4.30; in assay [1], 4.70.

Take `NC(=O)/C(=C1\Nc2ccc(C(=O)N(CCO)CCO)cc2N1)c1nccc(C(F)(F)F)n1` [Compound 30A]: the pIC50 was 8.00 at Aurora A kinase, 8.00 on Aurora B kinase, 8.10 on VEGFR2 kinase and 6.00 in the assay on p-H3 in HCT116 cells.

On to `NCCCNC(=O)c1ccc2c(c1)S/C(=C(/C(N)=O)c1nccc(C(F)(F)F)n1)N2` [Compound 65A], for which the negative logarithm of the IC50 (pIC50) on Aurora A kinase is 7.52; at Aurora B kinase, 7.70; against VEGFR2 kinase it was 8.15; in the assay with p-H3 in HCT116 cells it was 6.40; in assay [1] it was 6.70.

In the case of `NC(=O)/C(=C1\Nc2ccc(I)cc2S1)c1nccc(C(F)(F)F)n1` [Compound 25A], the negative logarithm of the IC50 (pIC50) is 6.70 on Aurora A kinase; 7.00 at Aurora B kinase; 6.40 against VEGFR2 kinase; below 4.30 in the assay on p-H3 in HCT116 cells; 5.00 in assay [1].

Consider `NC(=O)/C(=C1/Nc2cc(F)cc(F)c2N1)c1nccc(C(F)(F)F)n1` [Compound 36A], for which the negative logarithm of the IC50 (pIC50) at Aurora A kinase is 7.52; on Aurora B kinase, 7.40; on VEGFR2 kinase, 6.70; with p-H3 in HCT116 cells, below 5.30; in assay [1], 5.40.

Take `NC(=O)/C(=C1\Nc2ccc(CO)cc2N1)c1nccc(C(F)(F)F)n1` [Compound 35A]: the pIC50 is 8.05 on Aurora A kinase; 8.30 at Aurora B kinase; 7.70 against VEGFR2 kinase; 6.22 in the assay on p-H3 in HCT116 cells; 6.70 in assay [1].

For the compound `NC(=O)/C(=C1\Nc2ccc(C(=O)O)cc2S1)c1nccc(C(F)(F)F)n1` [Compound 27A], the pIC50 on Aurora A kinase was 8.52; on Aurora B kinase it was 8.05; against VEGFR2 kinase, 8.00; with p-H3 in HCT116 cells it was 6.00; in assay [1] it was 5.15.

As for `COC(=O)c1cc(C)nc(/C(C(N)=O)=C2/Nc3ccccc3S2)n1` [Compound 23A], the negative logarithm of the IC50 (pIC50) at Aurora A kinase was 7.15; on Aurora B kinase it was 8.22; against VEGFR2 kinase, 7.00; with p-H3 in HCT116 cells it was 5.10; in assay [1], 4.30.

Turning to `NC(=O)/C(=C1\Nc2ccccc2S1)c1nc(OCCN2CCOCC2)cc(C(F)(F)F)n1` [Compound 14A], the negative-log IC50 (pIC50) at Aurora A kinase is 7.30; on Aurora B kinase it was 7.52; against VEGFR2 kinase it was 7.10; in the assay with p-H3 in HCT116 cells, below 4.30; in assay [1] it was 5.10.

For `NC(=O)/C(=C1\Nc2cccc(C(=O)NCCCN3CCOCC3)c2S1)c1nccc(C(F)(F)F)n1` [Compound 52A], the pIC50 is 7.22 at Aurora A kinase; 7.22 on Aurora B kinase; 7.00 on VEGFR2 kinase; below 4.30 with p-H3 in HCT116 cells; 6.00 in assay [1].

For `Cc1ccnc(/C(C(N)=O)=C2/Nc3ccccc3S2)n1` [Compound 18A], the pIC50 at Aurora A kinase was 6.70; at Aurora B kinase, 7.40; on VEGFR2 kinase, 6.30; in the assay on p-H3 in HCT116 cells, 5.70; in assay [1], 4.70.

For the compound `NC(=O)/C(=C1\Nc2ccccc2S1)c1nc(NCCN2CCOCC2)cc(C(F)(F)F)n1` [Compound 137A], the negative logarithm of the IC50 (pIC50) at Aurora A kinase is 7.10; at Aurora B kinase, 7.52; at VEGFR2 kinase, 7.40; with p-H3 in HCT116 cells, 5.70; in assay [1], 5.70.

For `NC(=O)/C(=C1\Nc2ccc(C(=O)NC3CCNCC3)cc2N1)c1nccc(C(F)(F)F)n1` [Compound 70A], the pIC50 at Aurora A kinase was 7.22; on Aurora B kinase it was 8.00; against VEGFR2 kinase, 8.40; with p-H3 in HCT116 cells it was 6.00; in assay [1], 6.22.

As to `CCc1cnc(/C(C(N)=O)=C2/Nc3ccccc3S2)nc1` [Compound 21A], the pIC50 at Aurora A kinase was 6.70; at Aurora B kinase, 7.00; against VEGFR2 kinase, 6.00; in assay [1], 4.70.

Turning to `NC(=O)C(=C1Nc2ccc([N+](=O)[O-])cc2S1)c1nccc(C(F)(F)F)n1` (single isomer, unassigned) [Compound 26A, 2-[6-nitrobenzothiazol-2(3H)-ylidene]-2-(4-trifluoromethylpyrimidin-2-yl)acetamide], the pIC50 was 6.70 at Aurora A kinase; 7.00 at Aurora B kinase; 6.00 against VEGFR2 kinase; below 4.30 in the assay with p-H3 in HCT116 cells; 4.70 in assay [1].

As to `NC(=O)/C(=C1\Nc2ccc(CCO)cc2N1)c1nccc(C(F)(F)F)n1` [Compound 105A], the negative logarithm of the IC50 (pIC50) is 8.30 at Aurora A kinase, 8.15 at Aurora B kinase and 7.00 with p-H3 in HCT116 cells.

For the compound `Cc1cc(C)nc(/C(C(N)=O)=C2/Nc3ccccc3S2)n1` [Compound 22A], the pIC50 at Aurora A kinase is 7.10; at Aurora B kinase it was 8.00; on VEGFR2 kinase, 6.70; in the assay with p-H3 in HCT116 cells, 5.70; in assay [1], 5.00.

With `COC(=O)c1ccc2c(c1)N/C(=C(/C(N)=O)c1nccc(C(F)(F)F)n1)N2` [Compound 29A], the pIC50 at Aurora A kinase was 7.52; at Aurora B kinase, 8.00; at VEGFR2 kinase, 7.00; with p-H3 in HCT116 cells, below 5.30; in assay [1] it was 6.70.

Turning to `Cn1cncc1CCc1ccc2c(c1)S/C(=C(/C(N)=O)c1nccc(C(F)(F)F)n1)N2` [Compound 98A], the pIC50 at Aurora A kinase was 8.22; at Aurora B kinase it was 8.10.

`CCN(C(=O)c1ccc2c(c1)N/C(=C(/C(N)=O)c1nccc(C(F)(F)F)n1)N2)c1cccnc1` [Compound 43A]: the pIC50 at Aurora A kinase is 8.22; on Aurora B kinase, 8.00.

Take `NC(=O)/C(=C1\Nc2ccc(CCN3CCOCC3)cc2N1)c1nccc(C(F)(F)F)n1` [Compound 102A]: the pIC50 on Aurora A kinase was 8.40; on Aurora B kinase, 8.15; with p-H3 in HCT116 cells, 7.30.

In the case of `Cc1cc(C(=O)O)nc(/C(C(N)=O)=C2/Nc3ccccc3S2)n1` [Compound 24A], the pIC50 is 6.05 at Aurora A kinase, 6.00 at Aurora B kinase, 6.40 at VEGFR2 kinase and below 4.30 in assay [1].
